How the values were obtained:
[1] = Dissociation constant of compound.; type: physicochemical
Homo sapiens [2] = species: Homo sapiens; experiment: Compound was measured for the inhibitory activity against LTC4 formation in human monocyte at 30 uM concentration; type: functional; parameters: scale not given: the % may be the effect or the level left
Homo sapiens [3] = species: Homo sapiens; experiment: Compound was measured for the inhibitory activity against LTB4 formation in human whole blood at 30 uM concentration; type: functional; parameters: scale not given: the % may be the effect or the level left
[4] = target: T1, Cytosolic phospholipase A2 (Homo sapiens) (UniProt P47712); experiment: Compound was measured for the inhibitory activity against Cytosolic phospholipase A2 (c-PLA2) at 100 uM concentration; parameters: scale not given: the % may be the effect or the level left
T1 sequence (whole entry): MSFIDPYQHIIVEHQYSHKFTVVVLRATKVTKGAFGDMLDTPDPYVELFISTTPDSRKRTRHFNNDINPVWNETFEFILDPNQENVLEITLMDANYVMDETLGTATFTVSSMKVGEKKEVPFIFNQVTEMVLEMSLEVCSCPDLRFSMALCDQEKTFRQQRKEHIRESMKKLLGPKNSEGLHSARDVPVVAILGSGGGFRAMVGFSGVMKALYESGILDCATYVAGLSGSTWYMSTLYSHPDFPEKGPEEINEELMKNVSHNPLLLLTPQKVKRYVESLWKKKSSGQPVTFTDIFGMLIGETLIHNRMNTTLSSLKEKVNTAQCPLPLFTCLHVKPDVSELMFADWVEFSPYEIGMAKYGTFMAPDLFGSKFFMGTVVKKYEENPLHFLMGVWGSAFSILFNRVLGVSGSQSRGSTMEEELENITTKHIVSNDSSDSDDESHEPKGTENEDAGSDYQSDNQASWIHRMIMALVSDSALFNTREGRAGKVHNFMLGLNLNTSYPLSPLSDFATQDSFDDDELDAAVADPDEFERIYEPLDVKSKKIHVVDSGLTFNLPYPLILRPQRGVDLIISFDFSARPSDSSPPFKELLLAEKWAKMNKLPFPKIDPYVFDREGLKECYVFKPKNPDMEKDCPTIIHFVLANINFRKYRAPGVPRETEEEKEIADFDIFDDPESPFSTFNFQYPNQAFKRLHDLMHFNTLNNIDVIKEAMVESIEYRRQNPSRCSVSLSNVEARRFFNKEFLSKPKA

[5] = pH dependence of compound; weak; type: ADME
Homo sapiens [6] = species: Homo sapiens; experiment: Compound was measured for the inhibitory activity against LTC4 formation in human monocyte; not determined; not cell permeable; type: functional
[7] = target: T1, Cytosolic phospholipase A2 (Homo sapiens); experiment: Compound was measured for the inhibitory activity against Cytosolic phospholipase A 2 (c-PLA2) at 30 uM concentration; parameters: scale not given: the % may be the effect or the level left
Homo sapiens [8] = species: Homo sapiens; experiment: Compound was measured for the inhibitory activity against LTC4 formation in human monocyte; not cell permeable; type: functional

`CCCCCCCCCCOP(=O)(O)c1cc(OCc2ccccc2)ccc1/C=C/C(=O)O` showed a pKa [1] of 7.1, an Activity (Homo sapiens [2]) of -44% and an Activity (Homo sapiens [3]) of -90%.

`O=C(O)c1ccc2cccc(C(=O)C(F)(F)F)c2c1` showed an Activity [4] of -36% and an Activity (Homo sapiens [2]) of -76%.

For `CCCCCCCCCCCCCCCCCCOP(=O)(O)c1cccc2ccc(C(=O)O)cc12`, the pH dependence [5] was “weak” and the Activity (Homo sapiens [6]) was “not cell permeable”.

With `CCCCCCCOc1ccc(C(=O)O)cc1CC(=O)C(F)(F)F` the pKa [1] was 7.1, the Activity [7] was -40% and the Activity (Homo sapiens [8]) was “not cell permeable”.

From ChEMBL document CHEMBL1151015, “Novel frameworks for trifluoromethyl ketone and phosphonate tsa inhibitors of type II PLA2” (Bioorg Med Chem Lett, 1997)
